Data from US9656990B2, “Cathepsin cysteine protease inhibitors” (Merck Sharp & Dohme Corp., priority 2014, dated 2017).

Assays:
human cathepsin K = human cathepsin K (UniProt P43236, Y175D/V274L, species not given); assay: Cathepsin K Assay; assay type: biochemical; conditions: IP from dose response curve; Z-Leu-Arg-AMC substrate, pH 5.5; read-out: hrbCat K (IP (nM))
human cathepsin F = molecular target: T1, human cathepsin F (Homo sapiens, UniProt Q9UBX1); assay: Cathepsin F Assay; assay type: biochemical; conditions: IP from dose response curve; Z-Phe-Arg-AMC substrate, pH 5.5; read-out: hCat F (IP (nM))
T1 sequence (Q9UBX1 271-484): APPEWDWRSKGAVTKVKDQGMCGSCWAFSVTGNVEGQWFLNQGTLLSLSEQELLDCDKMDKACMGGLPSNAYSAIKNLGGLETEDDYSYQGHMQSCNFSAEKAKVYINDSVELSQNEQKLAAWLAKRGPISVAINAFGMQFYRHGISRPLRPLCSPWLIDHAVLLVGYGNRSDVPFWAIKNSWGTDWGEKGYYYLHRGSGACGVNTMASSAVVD
Method in brief: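 Human cathepsin F (10 nM) preincubated 15 min at room temperature with compounds in 50 mM MES pH 5.5, 2.5 mM EDTA, 2.5 mM DTT, 10% DMSO. Z-Phe-Arg-AMC (8 μM) added; AMC release read by fluorescence (Ex 360/Em 460 nm) over 20 min, inhibition fit to dose-response model.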

| SMILES | IC50 (human cathepsin K) [nM] | IC50 (human cathepsin F) [nM] |
| --- | --- | --- |
| CC(C)[C@@H](C#N)NC(=O)[C@@H]1CCC(F)(F)C[C@H]1c1nn(-c2ncccc2F)cc1-c1ccc(N2CCS(=O)(=O)CC2)cc1 [Example 32, (1R,2R)-N-((S)-1-cyano-2-methylpropyl)-2-(4-(4-(1,1-dioxidothiomorpholino)phen-yl)-1-(3-fluoropyridin-2-yl)-1H-pyrazol-3-yl)-4,4-difluorocyclohexanecarbox-amide] | 7.11 | 2780 |
| N#CC1(NC(=O)[C@@H]2CCC(F)(F)C[C@H]2c2nn(-c3ncccc3F)cc2-c2ccc(N3CCS(=O)(=O)CC3)cc2)CC1 [Example 33, (1R,2R)-N-(1-cyanocyclopropyl)-2-(4-(4-(1,1-dioxidothiomorpholino)phen-yl)-1-(3-fluoropyridin-2-yl)-1H-pyrazol-3-yl)-4,4-difluorocyclohexanecarbox-amide] | 13.6 | 9540 |
| C[C@@H](C#N)NC(=O)[C@@H]1CCC(F)(F)C[C@H]1c1nn(-c2ncccc2F)cc1-c1ccc(N2CCS(=O)(=O)CC2)cc1 [Example 34, (1R,2R)-N-((S)-1-cyanoethyl)-2-(4-(4-(1,1-dioxidothiomorpholino)phen-yl)-1-(3-fluoropyridin-2-yl)-1H-pyrazol-3-yl)-4,4-difluorocyclohexanecarbox-amide] | 5.4 | 2830 |
| CC(C)[C@@H](C#N)NC(=O)[C@@H]1CCC(F)(F)C[C@H]1c1nn(-c2ncccc2F)cc1-c1ccc(N2CCS(=N)(=O)CC2)cc1 [Example 35, (1R,2R)-N-((S)-1-cyano-2-methylpropyl)-4,4-difluoro-2-(1-(3-fluoropyridin-2-yl)-4-(4-(1-imino-1-oxidothiomorpholino)phenyl)-1H-pyrazol-3-yl)cyclohexanecarboxamide] | 9.69 | 4890 |
| CN=S1(=O)CCN(c2ccc(-c3cn(-c4ncccc4F)nc3[C@@H]3CC(F)(F)CC[C@H]3C(=O)N[C@H](C#N)C(C)C)cc2)CC1 [Example 36, (1R,2R)-N-((S)-1-cyano-2-methylpropyl)-4,4-difluoro-2-(1-(3-fluoropyridin-2-yl)-4-(4-(1-(methylimino)-1-oxidothiomorpholino)phenyl)-1H-pyrazol-3-yl)cyclohexanecarboxamide] | 8.79 | 8180 |
| CN=S1(=O)CCN(c2ccc(-c3cn(-c4ccc(F)cn4)nc3[C@@H]3CC[C@H](F)C[C@H]3C(=O)NC3(C#N)CC3)cc2)CC1 [Example 37, (1R,2R,5S)-N-(1-cyanocyclopropyl)-5-fluoro-2-(1-(5-fluoropyridin-2-yl)-4-(4-(1-(methylimino)-1-oxidothiomorpholino)phenyl)-1H-pyrazol-3-yl)cyclohexanecarboxamide] | 1.76 | 1660 |
| CN=S1(=O)CCN(c2ccc(-c3cn(-c4ccc(F)cn4)nc3[C@@H]3CC[C@H](F)C[C@H]3C(=O)N[C@@H](C)C#N)cc2)CC1 [Example 38, (1R,2R,5S)-N-((S)-1-cyanoethyl)-5-fluoro-2-(1-(5-fluoropyridin-2-yl)-4-(4-(1-(methylimino)-1-oxidothiomorpholino)phenyl)-1H-pyrazol-3-yl)cyclohexanecarboxamide] | 1.14 | 855 |
| Cc1c(-c2ccc(N3CCS(=O)(=O)CC3)cc2)c([C@@H]2CCCC[C@H]2C(=O)NC2(C#N)CC2)nn1-c1ncccc1F [Example 41, (1R,2R)-N-(1-cyanocyclopropyl)-2-(4-(4-(1,1-dioxidothiomorpholino)phen-yl)-1-(3-fluoropyridin-2-yl)-5-methyl-1H-pyrazol-3-yl)cyclohexanecarboxamide] | 8.5 | 5390 |
| Cc1c(-c2ccc(N3CCS(=O)(=O)CC3)cc2)c([C@@H]2CCCC[C@H]2C(=O)N[C@@H](C)C#N)nn1-c1ncccc1F [Example 42, (1R,2R)-N-((S)-1-cyanoethyl)-2-(4-(4-(1,1-dioxidothiomorpholino)phen-yl)-1-(3-fluoropyridin-2-yl)-5-methyl-1H-pyrazol-3-yl)cyclohexanecarboxamide] | 3.62 | 1990 |
| Cc1c(-c2ccc(N3CCS(=O)(=O)CC3)cc2)c([C@@H]2CCCC[C@H]2C(=O)N[C@H](C#N)C(C)C)nn1-c1ncccc1F [Example 43, (1R,2R)-N-((S)-1-cyano-2-methylpropyl)-2-(4-(4-(1,1-dioxidothiomorpholino)phen-yl)-1-(3-fluoropyridin-2-yl)-5-methyl-1H-pyrazol-3-yl)cyclohexanecarboxamide] | 12.1 | 4550 |
| CN=S1(=O)CCN(c2ccc(-c3c([C@@H]4CCCC[C@H]4C(=O)NC4(C#N)CC4)nn(-c4ncccc4F)c3C)cc2)CC1 [Example 44, (1R,2R)-N-(1-cyanocyclopropyl)-2-(1-(3-fluoropyridin-2-yl)-5-methyl-4-(4-(1-(methylimino)-1-oxidothiomorpholino)phenyl)-1H-pyrazol-3-yl)cyclohexanecarboxamide] | 13.9 | 8840 |
| C[C@@H](C#N)NC(=O)[C@@H]1CCC(F)(F)C[C@H]1c1nn(-c2ncccc2F)cc1-c1ccc(N2CCS(=N)(=O)CC2)cc1 [Example 45, (1R,2R)-N-((S)-1-cyanoethyl)-4,4-difluoro-2-(1-(3-fluoropyridin-2-yl)-4-(4-(1-imino-1-oxidothiomorpholino)phenyl)-1H-pyrazol-3-yl)cyclohexanecarboxamide] | 6.61 | 5480 |
| CN=S1(=O)CCN(c2ccc(-c3cn(-c4ncccc4F)nc3[C@@H]3CC(F)(F)CC[C@H]3C(=O)N[C@@H](C)C#N)cc2)CC1 [Example 46, (1R,2R)-N-((S)-1-cyanoethyl)-4,4-difluoro-2-(1-(3-fluoropyridin-2-yl)-4-(4-(1-(methylimino)-1-oxidothiomorpholino)phenyl)-1H-pyrazol-3-yl)cyclohexanecarboxamide] | 5.78 | 6620 |
| CN=S1(=O)CCN(c2ccc(-c3c([C@@H]4CCCC[C@H]4C(=O)N[C@@H](C)C#N)nn(-c4ncccc4F)c3C)cc2)CC1 [Example 47, (1R,2R)-N-((S)-1-cyanoethyl)-2-(1-(3-fluoropyridin-2-yl)-5-methyl-4-(4-(1-(methylimino)-1-oxidothiomorpholino)phenyl)-1H-pyrazol-3-yl)cyclohexanecarboxamide] | 5.48 | 3240 |
| CN=S1(=O)CCN(c2ccc(-c3c([C@@H]4CCCC[C@H]4C(=O)N[C@H](C#N)C(C)C)nn(-c4ncccc4F)c3C)cc2)CC1 [Example 48, (1R,2R)-N-((S)-1-cyano-2-methylpropyl)-2-(1-(3-fluoropyridin-2-yl)-5-methyl-4-(4-(1-(methylimino)-1-oxidothiomorpholino)phenyl)-1H-pyrazol-3-yl)cyclohexanecarboxamide] | 19.2 | 7350 |
| Cc1c(-c2ccc(N3CCS(=N)(=O)CC3)cc2)c([C@@H]2CCCC[C@H]2C(=O)NC2(C#N)CC2)nn1-c1ncccc1F [Example 50, (1R,2R)-N-(1-cyanocyclopropyl)-2-(1-(3-fluoropyridin-2-yl)-4-(4-(1-imino-1-oxidothiomorpholino)phenyl)-5-methyl-1H-pyrazol-3-yl)cyclohexanecarboxamide] | 14 | 7790 |
| Cc1c(-c2ccc(N3CCS(=N)(=O)CC3)cc2)c([C@@H]2CCCC[C@H]2C(=O)N[C@@H](C)C#N)nn1-c1ncccc1F [Example 51, (1R,2R)-N-((S)-1-cyanoethyl)-2-(1-(3-fluoropyridin-2-yl)-4-(4-(1-imino-1-oxidothiomorpholino)phenyl)-5-methyl-1H-pyrazol-3-yl)cyclohexanecarboxamide] | 7.41 | 3870 |
